Source: PubChem BioAssay AID274 (DTP/NCI, 2004)
Inconclusive results and toxic doses are left out.

Tested on: BDF1 mice, Lewis lung carcinoma iv, survival T/C
Assay: NCI In Vivo Anticancer Drug Screen. Data for tumor model Lewis Lung Carcinoma (intravenous) in B6D2F1 (BDF1) mice
Details: endpoint: median survival time, higher = longer survival
Description: The antitumor activity of compounds was measured in mice bearing transplantable tumors. Survival or tumor size were measured and the results are expressed as the measurement made in the treated group (T) divided by the measurement made in the vehicle treated control group (C). The tumor model used in this assay is Lewis Lung Carcinoma (intravenous) in B6D2F1 (BDF1) mice

[1] = dose: 25.0 mg/kg/injection, schedule: Q01DX009 (ip), vehicle: saline with Tween-80
[2] = dose: 50.0 mg/kg/injection, schedule: Q01DX009 (ip), vehicle: saline with Tween-80
[3] = dose: 100.0 mg/kg/injection, schedule: Q01DX009 (ip), vehicle: saline with Tween-80
[4] = dose: 200.0 mg/kg/injection, schedule: Q01DX009 (ip), vehicle: saline with Tween-80
[5] = dose: 12.5 mg/kg/injection, schedule: Q01DX009 (ip), vehicle: saline with Tween-80
[6] = dose: 6.25 mg/kg/injection, schedule: Q01DX009 (ip), vehicle: saline with Tween-80
[7] = dose: 6.25 mg/kg/injection, schedule: Q01DX009 (ip), vehicle: Klucel (hydroxypropylcellulose) (HPC)
[8] = dose: 12.5 mg/kg/injection, schedule: Q01DX009 (ip), vehicle: Klucel (hydroxypropylcellulose) (HPC)
[9] = dose: 25.0 mg/kg/injection, schedule: Q01DX009 (ip), vehicle: Klucel (hydroxypropylcellulose) (HPC)
[10] = dose: 1.56 mg/kg/injection, schedule: Q01DX009 (ip), vehicle: saline with Tween-80
[11] = dose: 12.5 mg/kg/injection, schedule: Q01DX009 (ip), vehicle: saline
[12] = dose: 25.0 mg/kg/injection, schedule: Q01DX009 (ip), vehicle: saline
[13] = dose: 50.0 mg/kg/injection, schedule: Q01DX009 (ip), vehicle: saline
[14] = dose: 100.0 mg/kg/injection, schedule: Q01DX009 (ip), vehicle: saline
[15] = dose: 200.0 mg/kg/injection, schedule: Q01DX009 (ip), vehicle: saline

Q: What does the source list for `COc1cc2c(c(OC)c1OC)-c1ccc(OC)c(=O)cc1[C@@H](NC(C)=O)CC2`?
A: T/C (dose: 0.19 mg/kg/injection, schedule: Q01DX009 (ip), vehicle: saline): 102 % of control; T/C (dose: 0.38 mg/kg/injection, schedule: Q01DX009 (ip), vehicle: saline): 109 % of control

Q: Which results are given for `C(COCCOCC1CO1)OCCOCC1CO1` (stereo unspecified)?
A: T/C [1]: 107 % of control; T/C [2]: 104 % of control; T/C [3]: 98 % of control; T/C [4]: 112 % of control

Q: `CC(C#N)(C#N)N=Nc1ccc(Cl)cc1Cl` was tested. Which T/C [5] did it give?
A: 105 % of control

Q: And the T/C [1]?
A: 94 % of control

Q: And the T/C [2]?
A: 92 % of control

Q: And the T/C [3]?
A: 103 % of control

Q: And the T/C [4]?
A: 95 % of control

Q: What about the T/C (dose: 400.0 mg/kg/injection, schedule: Q01DX009 (ip), vehicle: saline with Tween-80) of the same compound?
A: 101 % of control

Q: How did the T/C [6] turn out when `Cc1cc(N(CC(C)Br)CC(C)Br)ccc1N=Nc1ccccc1C(=O)O` (stereo unspecified) was run?
A: 117 % of control

Q: What about the T/C [5] of the same compound?
A: 114 % of control

Q: With `Cc1c2ccncc2c(C)c2c1[nH]c1ccccc12` as the compound, how does the T/C [7] read?
A: 111 % of control

Q: And the T/C [8]?
A: 93 % of control

Q: And the T/C [9]?
A: 105 % of control

Q: With `CCc1nc(N)nc(N)c1-c1ccc(Cl)c([N+](=O)[O-])c1` as the compound, how does the T/C [10] read?
A: 100 % of control

Q: And the T/C (dose: 3.12 mg/kg/injection, schedule: Q01DX009 (ip), vehicle: saline with Tween-80)?
A: 98 % of control

Q: And the T/C [6]?
A: 111 % of control

Q: What about the T/C [5] of the same compound?
A: 111 % of control

Q: With `CSc1ccc2c(c1)C(N1CCN(C)CC1)Cc1ccccc1S2` (stereo unspecified) as the compound, how does the T/C [10] read?
A: 102 % of control

Q: For `Nc1nc(N)c(N=O)c(Nc2ccc(I)cc2)n1`, which T/C [2] is on record?
A: 97 % of control

Q: And the T/C [3]?
A: 95 % of control

Q: And the T/C [4]?
A: 95 % of control

Q: With `CC1CCC2(OC1)OC1CC3C4CCC5CC(O)CCC5(C)C4CCC3(C)C1C2C` (stereo unspecified) as the compound, how does the T/C (dose: 20.0 mg/kg/injection, schedule: Q01DX009 (ip), vehicle: Klucel (hydroxypropylcellulose) (HPC)) read?
A: 91 % of control

Q: Which results are given for `O=c1c(O)c(-c2cc(O)c(O)c(O)c2)oc2cc(O)cc(O)c12`?
A: T/C (dose: 6.25 mg/kg/injection, schedule: Q01DX009 (ip), vehicle: other): 88 % of control; T/C (dose: 12.5 mg/kg/injection, schedule: Q01DX009 (ip), vehicle: other): 94 % of control; T/C (dose: 25.0 mg/kg/injection, schedule: Q01DX009 (ip), vehicle: other): 93 % of control; T/C (dose: 50.0 mg/kg/injection, schedule: Q01DX009 (ip), vehicle: other): 93 % of control; T/C (dose: 100.0 mg/kg/injection, schedule: Q01DX009 (ip), vehicle: other): 115 % of control; T/C (dose: 200.0 mg/kg/injection, schedule: Q01DX009 (ip), vehicle: other): 97 % of control

Q: For `COc1cccc2c1C(=O)c1c(O)c3c(c(O)c1C2=O)C[C@@](O)(/C(C)=N\O)C[C@@H]3OC1CC(N)C(O)C(C)O1` (stereo partly specified), which T/C (dose: 3.13 mg/kg/injection, schedule: Q01DX009 (ip), vehicle: water) is on record?
A: 108 % of control

Q: And the T/C (dose: 6.25 mg/kg/injection, schedule: Q01DX009 (ip), vehicle: water)?
A: 99 % of control

Q: What about the T/C (dose: 12.5 mg/kg/injection, schedule: Q01DX009 (ip), vehicle: water) of the same compound?
A: 114 % of control

Q: Which results are given for `CN=C(N)N/N=C(\c1ccccc1)c1ccc(Br)cc1`?
A: T/C (dose: 1.5 mg/kg/injection, schedule: Q01DX009 (ip), vehicle: saline with Tween-80): 95 % of control; T/C (dose: 3.0 mg/kg/injection, schedule: Q01DX009 (ip), vehicle: saline with Tween-80): 98 % of control; T/C [6]: 99 % of control; T/C [5]: 105 % of control

Q: Which results are given for `CSCCC(N)C(=O)O` (stereo unspecified)?
A: T/C (dose: 18.75 mg/kg/injection, schedule: Q01DX009 (ip), vehicle: saline with Tween-80): 101 % of control; T/C (dose: 37.5 mg/kg/injection, schedule: Q01DX009 (ip), vehicle: saline with Tween-80): 93 % of control; T/C (dose: 40.0 mg/kg/injection, schedule: Q01DX009 (ip), vehicle: saline with Tween-80): 100 % of control; T/C (dose: 75.0 mg/kg/injection, schedule: Q01DX009 (ip), vehicle: saline with Tween-80): 101 % of control; T/C (dose: 80.0 mg/kg/injection, schedule: Q01DX009 (ip), vehicle: saline with Tween-80): 97 % of control; T/C (dose: 150.0 mg/kg/injection, schedule: Q01DX009 (ip), vehicle: saline with Tween-80): 91 % of control; T/C (dose: 160.0 mg/kg/injection, schedule: Q01DX009 (ip), vehicle: saline with Tween-80): 95 % of control; T/C (dose: 320.0 mg/kg/injection, schedule: Q01DX009 (ip), vehicle: saline with Tween-80): 100 % of control

Q: How did the T/C [6] turn out when `COc1ccc(C(Cn2ccnc2)Sc2ccc(Cl)c(Cl)c2)cc1` (stereo unspecified) was run?
A: 95 % of control

Q: And the T/C [5]?
A: 97 % of control

Q: And the T/C [1]?
A: 96 % of control

Q: And the T/C [2]?
A: 100 % of control

Q: How did the T/C [5] turn out when `O=[N+]([O-])c1ccc(Sc2ccncn2)c([N+](=O)[O-])c1` was run?
A: 91 % of control

Q: What about the T/C [1] of the same compound?
A: 112 % of control

Q: And the T/C [2]?
A: 95 % of control

Q: And the T/C [3]?
A: 107 % of control

Q: What does the source list for `NC(=O)c1ncn2c(=O)n(CCCl)nnc12`?
A: T/C (dose: 3.12 mg/kg/injection, schedule: Q01DX009 (ip), vehicle: saline): 103 % of control; T/C (dose: 6.25 mg/kg/injection, schedule: Q01DX009 (ip), vehicle: saline): 120 % of control; T/C [11]: 159 % of control; T/C [12]: 298 % of control

Q: `CCCCCCCCCCCCCCC/C([O-])=N/[N+](C)(C)CC(C)O` (stereo unspecified) was tested. Which T/C (dose: 12.5 mg/kg/injection, schedule: Q01DX001 (ip), vehicle: saline) did it give?
A: 95 % of control

Q: And the T/C (dose: 25.0 mg/kg/injection, schedule: Q01DX001 (ip), vehicle: saline)?
A: 96 % of control

Q: What about the T/C (dose: 50.0 mg/kg/injection, schedule: Q01DX001 (ip), vehicle: saline) of the same compound?
A: 97 % of control

Q: And the T/C (dose: 100.0 mg/kg/injection, schedule: Q01DX001 (ip), vehicle: saline)?
A: 104 % of control

Q: What about the T/C (dose: 200.0 mg/kg/injection, schedule: Q01DX001 (ip), vehicle: saline) of the same compound?
A: 108 % of control

Q: And the T/C (dose: 400.0 mg/kg/injection, schedule: Q01DX001 (ip), vehicle: saline)?
A: 102 % of control

Q: How did the T/C [12] turn out when `O=C1C=CC(=O)O1` (tested in a mixture with another compound) was run?
A: 101 % of control

Q: And the T/C [13]?
A: 94 % of control

Q: What about the T/C [14] of the same compound?
A: 103 % of control

Q: And the T/C [15]?
A: 95 % of control

Q: What does the source list for `COc1ccc2nonc2c1`?
A: T/C [1]: 191 % of control; T/C [2]: 109 % of control; T/C [3]: 101 % of control; T/C [4]: 103 % of control

Q: Which results are given for `Nc1ccnc(=O)[nH]1`?
A: T/C (dose: 32.0 mg/kg/injection, schedule: Q01DX009 (ip), vehicle: Klucel (hydroxypropylcellulose) (HPC)): 111 % of control; T/C (dose: 32.0 mg/kg/injection, schedule: Q01DX009 (ip), vehicle: saline with Tween-80): 103 % of control; T/C (dose: 64.0 mg/kg/injection, schedule: Q01DX009 (ip), vehicle: Klucel (hydroxypropylcellulose) (HPC)): 98 % of control; T/C (dose: 128.0 mg/kg/injection, schedule: Q01DX009 (ip), vehicle: Klucel (hydroxypropylcellulose) (HPC)): 95 % of control; T/C (dose: 256.0 mg/kg/injection, schedule: Q01DX009 (ip), vehicle: Klucel (hydroxypropylcellulose) (HPC)): 102 % of control; T/C (dose: 256.0 mg/kg/injection, schedule: Q01DX009 (ip), vehicle: saline with Tween-80): 119 % of control; T/C (dose: 512.0 mg/kg/injection, schedule: Q01DX009 (ip), vehicle: Klucel (hydroxypropylcellulose) (HPC)): 86 % of control; T/C (dose: 512.0 mg/kg/injection, schedule: Q01DX009 (ip), vehicle: saline with Tween-80): 107 % of control

Q: What does the source list for `CC(=O)OCc1ncccc1OC(C)=O`?
A: T/C [12]: 97 % of control; T/C [13]: 100 % of control; T/C [14]: 101 % of control; T/C [15]: 104 % of control

Q: What does the source list for `COC(=O)CC(N)C(=O)O` (stereo unspecified)?
A: T/C [11]: 115 % of control; T/C [13]: 95 % of control; T/C [14]: 109 % of control; T/C [15]: 100 % of control

Q: For `CCCCCC[C@H]([C@H](C)O)n1cnc2c(N)ncnc21`, which T/C [7] is on record?
A: 99 % of control

Q: What about the T/C [8] of the same compound?
A: 104 % of control

Q: And the T/C [9]?
A: 103 % of control

Q: And the T/C (dose: 100.0 mg/kg/injection, schedule: Q01DX009 (ip), vehicle: Klucel (hydroxypropylcellulose) (HPC))?
A: 96 % of control

Q: And the T/C (dose: 200.0 mg/kg/injection, schedule: Q01DX009 (ip), vehicle: Klucel (hydroxypropylcellulose) (HPC))?
A: 99 % of control

Q: Which T/C (dose: 0.39 mg/kg/injection, schedule: Q01DX009 (ip), vehicle: saline) does the source give for `CCC1(O)CC2CN(CCc3c([nH]c4ccccc34)C(C(=O)OC)(c3cc4c(cc3OC)N(C)C3C(O)(C(=O)NCCSSCCNC(=O)C5(O)C(O)C6(CC)C=CCN7CCC8(c9cc(C%10(C(=O)OC)CC%11CN(CCc%12c%10[nH]c%10ccccc%12%10)CC(O)(CC)C%11)c(OC)cc9N(C)C58)C76)C(O)C5(CC)C=CCN6CCC43C65)C2)C1` (stereo unspecified) here?
A: 93 % of control

Q: What about the T/C (dose: 0.65 mg/kg/injection, schedule: Q01DX009 (ip), vehicle: saline) of the same compound?
A: 93 % of control
